Assays:
[1] = system: adalimumab-producing CHO cell line; assay: Example 1 culture growth & productivity, batch shake flasks; type: cell-based, Chinese Hamster; details: galactose 0 to 100 mM and/or manganese chloride up to 80 μM
Experimental: All supernatants were stored at −80° C. until analysis. […] Culture growth, productivity, and product quality data for control cultures is the average of the 3 experiments.

[2] = system: adalimumab-producing CHO cell line; assay: Example 2 culture growth & productivity, HyClone CDM4CHO; type: cell-based, Chinese Hamster; details: galactose 0 to 40 mM and/or manganese chloride up to 10 μM
Experimental: (§1) For all studies with CHO cell lines described throughout this invention, samples were collected daily and measured for cell density and viability using a Cedex cell counter. Retention samples for titer analysis via Poros A method were collected by centrifugation at 12,000 RPM for 5 min when the culture viability began declining. The cultures were harvested by collecting 125 mL aliquots and centrifuging at 3,000 RPM for 30 min when culture viability was near or below 50%. All supernatants were stored at −80° C. until analysis.
Growth and production media for the adalimumab-producing CHO cell line were prepared using Thermo Scientific HyClone chemically defined media CDM4CHO without L-glutamine (Catalogue #SH30558.02). […] All media were filtered through Corning 0.5 L or 1 L (0.22 μm PES) filter systems and stored at 4° C. until use.
Upon thaw, cells were adapted to and expanded in HyClone CDM4CHO media for 5 (2 to 3 day each) passages in a combination of 250 mL, 500 mL, and 1000 mL Corning vented non-baffled shake flasks. Production cultures were initiated in duplicate 500 mL Corning vented non-baffled shake flasks (200 mL working volume) at an initial VCD of approximately 0.5×10^6 cells/mL. Cultures were maintained on orbital shakers at 110 RPM in a dry incubator at 35° C. and 5% CO2. […]

[3] = system: adalimumab-producing CHO cell line #2; assay: Example 4 oligosaccharide analysis, CDM GIA-1, batch shake flasks; type: cell-based, Chinese Hamster
Experimental: as §1
For all studies, the harvest samples were Protein A purified and prepared for the oligosaccharide assay using the following procedures. As a first step in the process of establishing the identity and quantifying the oligosaccharides, they are released from the protein by enzymatic digestion with N-glycanase. Once the glycans are released, the free reducing end of each glycan is labeled by reductive amination with a fluorescent tag, 2-aminobenzamide (2-AB). The resulting labeled glycans are separated by normal-phase HPLC (NP-HPLC) in acetonitrile: 50 mM ammonium formate, pH 4.4, and detected by a fluorescence detector. Quantitation is based on the relative area percent of detected sugars. Throughout this invention, the relative area percentages of the agalactosyl fucosylated biantennary oligosaccharides, denoted as NGA2F+NGA2F-GlcNAc sum, and the galactose-containing fucosylated biantennary oligosaccharides NA1F+NA2F sum are reported and discussed.
Growth and production media for the adalimumab-producing CHO cell line #2 were prepared using a proprietary Life Technologies Gibco chemically defined media, GIA-1. […] All media were filtered through Corning 0.5 L or 1 L filter systems (0.22 μm PES) and stored at 4° C. until use.
Upon thaw, cells were expanded for 5 to 8 (2 to 3 day each) passages in a combination of 250 mL, 500 mL, and 1000 mL Corning vented non-baffled shake flasks. Production cultures were initiated in duplicate 500 mL Corning vented non-baffled shake flasks (200 mL working volume) at an initial VCD of approximately 0.5×10^6 cells/mL. Cultures were maintained on orbital shakers at 180 RPM in a dry incubator at 35° C. and 5% CO2. A glucose solution (1.25% (v/v) of 40% solution) was fed when the media glucose concentration fell below 3 g/L.
Galactose was supplemented at the following levels in production media: 0, 10, and 20 mM. […] This study was run in 2 blocks.

[4] = system: adalimumab-producing NSO cell line; assay: Example 6 culture growth & productivity; type: cell-based; details: for culture growth and viability profiles: galactose 0 to 5 mM and/or manganese chloride up to 0.5 μM
Experimental: Growth and production media for the adalimumab-producing NSO cell line were prepared using a proprietary Life Technologies Gibco chemically defined media, PFBM-3 basal medium plus PFFM-4 feed medium.
Upon thaw, cells were expanded for 3 to 5 (2 days each) passages in a combination of 250 mL, 500 mL, 1 L, 2 L and 3 L Corning vented non-baffled shake flasks. Production cultures were initiated in single 1 L Corning vented non-baffled shake flasks (240 mL initial working volume) at an initial VCD of approximately 2.5×10^5 cells/mL. Cultures were maintained on orbital shakers at 100 RPM in a dry incubator at 37° C. and 5% CO2. The shake flask study was run in a fed-batch mode and the culture was fed PFFM-4 as follows: 24 mL—day 2, 28.8 mL—day 4, 28.8 mL—day 6, and 28.8 mL—day 8.
Samples were collected every 2 days and measured for cell density and viability using a Cedex cell counter. Retention samples for titer analysis via Poros A method were collected daily beginning on Day 8 by centrifugation at 2,000 g for 10 min and then filtered through 0.2 μm PVDF syringe filter. The cultures were harvested on production day 10. The entire culture was collected, chilled on ice to approximately 0° C. for 1.5 hours, the cells and debris flocculated at pH 5.0 by the addition of 1M citric acid and held for 15 minutes, and centrifuged at 4000x g for 15 min at 5° C. The supernatant was passed through 0.20 μm Millipore Stericup PES filters, and, immediately post filtration, the acidified clarified cell-free harvest was neutralized with 2M Tris to pH 7.1±0.2. The cell free harvest was transferred to PETG bottles and stored at −80° C. until analysis.
Galactose was supplemented at the following levels in both production and feed media: 0, 1, 4, 5, and 10 mM.

Molecule | cell growth and viability profiles [1] | cell growth and viability profiles [2] | decrease in the NGA2F+NGA2F-GlcNac sum ([3]; 10 μM manganese chloride alone) | maximum decrease in the NGA2F+NGA2F-GlcNac sum ([3]; 20 μM manganese chloride alone) | maximum increase in the NA1F+NA2F sum ([3]; 20 μM manganese chloride alone) | culture growth and viability profiles [4] | decrease in the NGA2F+NGA2F-GlcNac sum ([3]; 10 mM galactose alone) | maximum decrease in the NGA2F+NGA2F-GlcNac sum ([3]; 20 mM galactose alone) | maximum increase in the NA1F+NA2F sum ([3]; 20 mM galactose alone) | effect on culture growth and productivity ([4]; galactose 10 mM) | harvest titer lower than control condition ([4]; galactose 10 mM)
Manganese (II) Chloride [manganese chloride] | comparable to control cultures | comparable to the control cultures | 18% | 22% | 23% | comparable to the control condition |  |  |  |  | 
O=C[C@H](O)[C@@H](O)[C@@H](O)[C@H](O)CO [galactose, D(+)Galactose] | comparable to control cultures | comparable to the control cultures |  |  |  | comparable to the control condition | 6% | 9% | 10% | detrimental effect on culture growth and productivity | 60%
